ChEMBL document CHEMBL1201862, “PubChem BioAssay data set” (2004)
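These data come from cells grown in 96-well plates and exposed to compound for 48 hours at five concentrations. At the GI50, growth is halved.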 The source made the active and inactive calls. No stated cut-off is given here; in the data, active = GI50 up to about 1.1 µM and inactive = higher.

Tests used:
Assay in all cases: inhibition of tumour cell growth, NCI panel, 48 h
786-0 = system: 786-0
A549 = system: A549
HCT-15 = system: HCT-15
IGROV-1 = system: IGROV-1
LOX IMVI = system: LOX IMVI
Malme-3M = system: Malme-3M
NCI-H226 = system: NCI-H226
NCI-H23 = system: NCI-H23
NCI-H522 = system: NCI-H522
OVCAR-4 = system: OVCAR-4
OVCAR-5 = system: OVCAR-5
OVCAR-8 = system: OVCAR-8
PC-3 = system: PC-3
SF-268 = system: SF-268
SK-MEL-2 = system: SK-MEL-2
SK-MEL-5 = system: SK-MEL-5
SNB-19 = system: SNB-19
TK-10 = system: TK-10
UACC-62 = system: UACC-62
UO-31 = system: UO-31

Measured: GI50

O=c1oc2ccccc2c(Nc2ccc3c(c2)Oc2ccccc2O3)c1[N+](=O)[O-]
44.1 µM: HCT-15
inactive: 786-0 18.9 µM | A549 32.4 µM | IGROV-1 19 µM | LOX IMVI 36.9 µM | Malme-3M 23 µM | NCI-H226 23.1 µM | NCI-H23 20.3 µM | NCI-H522 24.1 µM | OVCAR-4 23.9 µM | OVCAR-5 35.6 µM | OVCAR-8 18.8 µM | PC-3 17.7 µM | SF-268 23.7 µM | SK-MEL-2 16.9 µM | SK-MEL-5 20.4 µM | SNB-19 17.5 µM | TK-10 21.2 µM | UACC-62 17.7 µM | UO-31 > 100 µM

N#C/C(N)=C(C#N)/N=C/NCCO
> 100 µM: HCT-15
inactive: 786-0 > 100 µM | A549 > 100 µM | IGROV-1 > 100 µM | LOX IMVI > 100 µM | Malme-3M > 100 µM | NCI-H226 > 100 µM | NCI-H23 > 100 µM | NCI-H522 > 100 µM | OVCAR-4 > 100 µM | OVCAR-5 > 100 µM | OVCAR-8 > 100 µM | PC-3 > 100 µM | SF-268 > 100 µM | SK-MEL-2 > 100 µM | SK-MEL-5 > 100 µM | SNB-19 > 100 µM | TK-10 > 100 µM | UACC-62 > 100 µM | UO-31 > 100 µM

C=C1C(=O)O[C@H]2[C@H]([C@H](C)CCCC(C)=O)O[C@H]([C@@]3(C)CCC(=O)O3)C[C@@H]12
42 µM: HCT-15
active: SF-268 0.0316 µM
inactive: 786-0 35.2 µM | A549 > 100 µM | IGROV-1 > 100 µM | LOX IMVI 24.4 µM | Malme-3M 18.4 µM | NCI-H226 31.3 µM | NCI-H23 43.4 µM | NCI-H522 26.4 µM | OVCAR-4 > 100 µM | OVCAR-5 > 100 µM | OVCAR-8 63.4 µM | PC-3 > 100 µM | SK-MEL-2 > 100 µM | SK-MEL-5 > 100 µM | SNB-19 > 100 µM | TK-10 17.7 µM | UACC-62 66.5 µM | UO-31 > 100 µM

CC(C)(C)c1cc(/C=C(\C#N)C2=NCCO2)cc(C(C)(C)C)c1O
3.29 µM: HCT-15
inactive: 786-0 3.28 µM | A549 4.44 µM | IGROV-1 6.58 µM | LOX IMVI 5.96 µM | Malme-3M 7.26 µM | NCI-H226 5.4 µM | NCI-H23 3.44 µM | NCI-H522 3.2 µM | OVCAR-4 3.13 µM | OVCAR-5 2.89 µM | OVCAR-8 4.67 µM | PC-3 2.65 µM | SF-268 4.61 µM | SK-MEL-2 2.75 µM | SK-MEL-5 2.38 µM | SNB-19 4.43 µM | TK-10 3.48 µM | UACC-62 4.31 µM | UO-31 2.73 µM

O=[N+]([O-])c1ccc(-c2csc3nc(-c4ccccc4)nn23)cc1
inactive: 786-0 98.2 µM | A549 > 100 µM | IGROV-1 > 100 µM | LOX IMVI > 100 µM | Malme-3M > 100 µM | NCI-H226 > 100 µM | NCI-H23 > 100 µM | NCI-H522 > 100 µM | OVCAR-4 > 100 µM | OVCAR-5 > 100 µM | OVCAR-8 47.5 µM | PC-3 > 100 µM | SF-268 82 µM | SK-MEL-2 > 100 µM | SK-MEL-5 > 100 µM | SNB-19 > 100 µM | TK-10 > 100 µM | UACC-62 > 100 µM | UO-31 > 100 µM
> 100 µM: HCT-15

COC(=O)c1ccc(O)c2nc3c(C=O)c(O)cc(O)c3nc12 [LOMOFUNGIN]
0.22 µM: HCT-15
inactive: 786-0 1.73 µM | Malme-3M 2.07 µM | OVCAR-4 2.76 µM | SK-MEL-2 2.9 µM | SNB-19 1.9 µM | TK-10 1.62 µM | UACC-62 1.27 µM
active: A549 0.396 µM | IGROV-1 0.206 µM | LOX IMVI 0.269 µM | NCI-H226 0.542 µM | NCI-H23 0.139 µM | NCI-H522 0.755 µM | OVCAR-5 0.822 µM | OVCAR-8 0.0439 µM | PC-3 0.661 µM | SF-268 0.428 µM | SK-MEL-5 0.953 µM | UO-31 0.225 µM
